Series [1] in a line: Absorption into blood stream after intramuscular injection with gamma cyclodextrin. The conditions noted are these: injected intramuscularly, rats. Format: in vivo, rat. From the text: The use of gamma-cyclodextrin with TSC increases the solubility of TSC in water by 3-7 times. […] The incorporation of the gamma cyclodextrin also allows for TSC to be absorbed into the blood stream when injected intramuscularly. Absorption is quick, and efficacious blood levels of TSC are reached quickly (as shown in rats).

A short description of series [2]: Stability of TSC versus pH. Format: physicochemical. The conditions noted are these: dependence on pH. The procedure:
Mannitol can be used to adjust osmolality and its concentration varies depending on the concentration of other ingredients. The glycine is held constant. […] The use of glycine is compatible with lyophilization. Alternatively, the TSC and cyclodextrin is formulated using a 50 mM bicarbonate or other buffers, in place of the glycine.

The subject of series [3] is Cancer: Radiation Sensitizer. Nature of the series: Pre-clinical efficacy study: Cancer: Radiation Sensitizer. Format: in vivo. The text has this: It has also been determined that several non-cancer disorders are beneficially treated utilizing an administration regimen of a bipolar trans carotenoid such as TSC, as described below.
The nature of series [4]: Phase 1 and Phase 2 clinical trials of TSC, safety. Format: in vivo. To be noted: 148 human subjects. From the text: A Phase ½ clinical trial was recently completed examining TSC in patients with GBM. The Phase ½ clinical trial in GBM enrolled 59 patients with newly diagnosed disease that received TSC in conjunction with radiation therapy (RT) and temozolomide (TMZ). In the Phase I portion of the trial TSC was initially administered three times per week at half-dose to three patients prior to radiation. Six additional patients received full dose TSC for six weeks in combination with radiation. […] Fifty additional patients were enrolled in the Phase II trial at full dose TSC in combination with TMZ and RT. Four weeks after completion of RT, all patients resumed TMZ for five days every four weeks, but no further TSC was administered.

A further series concerns DMBA breast tumors. As to the kind of experiment: DMBA breast tumor model, TSC before chemotherapy. Format: in vivo.

As to `CC(/C=C/C=C(\C)C(=O)[O-])=C\C=C\C=C(C)\C=C\C=C(/C)C(=O)[O-].[Na+].[Na+]` [TSC, trans sodium crocetinate], in series [1], the “absorption into the blood stream” value was “quick”. Further, the stability result in series [2] is recorded as “more stable at higher pHs”. For the same molecule, the “Best Dosage” value in series [3] (Mouse) and in series [3] (Rat) was “Low” throughout. For the same molecule, the serious adverse events entry in series [4] is “no serious adverse events reported”. Besides, in the series with DMBA breast tumors (low dose (for rats) 0.1 mg/kg TSC IV 50 minutes before chemotherapy), the “effect on tumor volume with cisplatin” value was “not effective”. Further, the “effect on tumor volume with gemcitabine” value with DMBA breast tumors (low dose of TSC 50 minutes before chemotherapy) was “not effective”.

The record behind these values is patent US11185523B2, “Use of bipolar trans carotenoids with chemotherapy and radiotherapy for treatment of cancer” (DIFFUSION PHARMACEUTICALS LLC, priority 2016, dated 2021).
